Data from patent publication US20220354957A1, “PEPTIDES TARGETING MACROPHAGES, AND CONJUGATES, COMPOSITIONS, AND USES THEREOF” (Twinpig Biolab, Inc., priority 2021, published 2022).

Experiments:
PC3 cells = assay: Invasion assay of prostate cancer cells with conditioned medium of macrophages; format: cell-based, human; conditions: conditioned medium of M2 macrophages and M2-like TAMs pretreated with peptide
Method: To obtain conditioned media of tumor (TCM), PC3 cells were seeded at 2×10^5 cells/well in culture medium in 24-well plates (Corning Inc). After 24 hours, the medium was changed to serum-free RPMI1640 medium and the cells were incubated for 24 hours. For conditioned media of macrophages, THP-1 cells were seeded at 2×10^5 cells/well in culture medium in 24-well plates (Corning Inc) and incubated with 100 nM PMA for 24 h. Cells were polarized into M0, M1, and M2 macrophages or TAM macrophages by TCM and changed to serum-free RPMI1640 medium. After 24 hours, the medium was changed to serum-free RPMI1640 medium and the cells were incubated for 24 hours. Supernatants were harvested and clarified with syringe filters (0.2 μm, Milipore). […]
The invasiveness of prostate cancer cells treated with conditioned media of macrophages was tested according to the manufacturer's instructions for the invasion assay (Corning Inc.) with slight modifications. Briefly, invasiveness was assessed using 24-well plates fitted with polycarbonate 8-μm pore membrane inserts (Corning Inc.) pre-coated with Matrigel (200-300 μg/mL) for 2 hours at 37° C. […] Five randomly selected fields per membrane were counted under a light microscope (Olympus). The invasion index was calculated from the number of cells that migrated in response to conditioned medium compared with the control without conditioned medium.

[1] = system: lung fibrosis induced by bleomycin; assay: Mouse model of lung fibrosis (bleomycin); format: in vivo
Method: For lung fibrosis mouse model, C57BL/6 (B6) wild-type mice were lightly anesthetized with 2.5% isoflurane and administered bleomycin (BLM, 2 mg/kg) via oropharyngeal aspiration (OA) using a micropipette. After 14 days, the mice were intraperitoneally injected with MpepK (200 nmol/kg) every other day. The animal studies were approved by the Institutional Animal Care and Use Committee of Kyung Hee University (KHUASP(SE)-20-530 for melanoma and 20-382 for prostate cancer). All animals were maintained in a specific pathogen-free environment on a 12-h light/dark cycle with free access to food and water. Nesting sheets were used for enrichment. After the experiments were terminated, all mice were euthanized using isoflurane and cervical dislocation.
Total RNA was extracted using Easy-Blue reagent. Concentrations of RNA were determined and quantified by measuring absorbance at 260 and 280 nm with a spectrophotometer. […] PCR conditions were forty-five cycles at 95° C. for 5 min, followed by 95° C. for 10 sec, 60° C. for 10 sec and 72° C. for 10 sec. mRNA expression were quantified in triplicate. Data were measured with CFX Software (Bio-Rad). […]
The lung tissues of lung fibrosis mouse model were fixed in 10% neutral buffered formalin and embedded in paraffin. […] The sections were examined and evaluated randomly using standard light microscopy (Olympus).

## CC[C@H](C)[C@H](NC(=O)[C@H](CC(C)C)NC(=O)[C@H](C)NC(=O)[C@@H]1CCCN1C(=O)[C@H](CC(C)C)NC(=O)CNC(=O)[C@@H](NC(=O)[C@@H](NC(=O)[C@H](CC(C)C)NC(=O)[C@@H](NC(C)=O)C(C)C)[C@@H](C)O)[C@@H](C)O)C(=O)N[C@@H](CO)C(=O)N[C@@H](Cc1c[nH]c2ccccc12)C(=O)N[C@H](C(=O)N[C@@H](CCCCN)C(=O)N[C@@H](CCCNC(=N)N)C(=O)N[C@@H](CCCCN)C(=O)N[C@@H](CCCNC(=N)N)C(=O)N[C@@H](CCC(N)=O)C(=O)N[C@@H](CCC(N)=O)C(=O)NCC(=O)NCC(=O)NCC(=O)NCC(=O)N[C@@H](CO)C(=O)N[C@H](CCCCN)C(=O)N[C@H](CC(C)C)C(=O)N[C@H](C)C(=O)N[C@H](CCCCN)C(=O)N[C@H](CC(C)C)C(=O)N[C@H](C)C(=O)N[C@H](CCCCN)C(=O)N[C@H](CCCCN)C(=O)N[C@H](CC(C)C)C(=O)N[C@H](C)C(=O)N[C@H](CCCCN)C(=O)N[C@H](CC(C)C)C(=O)N[C@H](C)C(=O)N[C@H](CCCCN)C(=O)O)[C@@H](C)CC [MpepK]
PC3 cells
  invasion of PC3 cells: significantly reduced
[1]; 200 nmol/kg i.p. every other day, H&E
  lung fibrosis induced by bleomycin: decreased
[1]; compared to PBS
  gene expression related to fibrosis such as fos12, collagen type 1 and fibronectin 1: significantly reduced
